From patent publication US10501441B2, “Substituted imidazolylcarboxamides as pesticides” (BAYER CROPSCIENCE AKTIENGESELLSCHAFT, priority 2016, dated 2019) come the findings set out here.

A short description of data set [1]: log P by reversed-phase HPLC (C18), EEC directive 79/831 Annex V.A8, neutral range. Type of data set: physicochemical. The note with it: pH 7.8; for chromatographic logP: reversed-phase HPLC column (C18), read-out: Logp [n]. The procedure:
a) The log P values reported in the tables and preparation examples above were determined in accordance with EEC directive 79/831 Annex V.A8 by HPLC (High Performance Liquid Chromatography) using a reversed-phase column (C18). Temperature 43° C. The calibration is effected with unbranched alkan-2-ones (having 3 to 16 carbon atoms), for which the log P values are known. […] The log P values for the acidic range (as log P [a]) and/or for the neutral range (as log P [n]) were stated in the tables and preparation examples above.

The test system of data set [2] is Myzus persicae. Put plainly: Myzus persicae - oral test (MYZUPE O). The format is in vivo. The note with it: for Emax at 0.8 ppm / Emax at 4 ppm / pest or weed control at 20 ppm: Myzus persicae, po, 120 h; for Emax at 0.8 ppm / Emax at 4 ppm: MYZUPE O, 5 dat, read-out: % efficacy; for pest or weed control at 20 ppm / efficacy (aphids killed): after 5 days, 20 ppm; for pest or weed control at 20 ppm: read-out: efficacy (aphids killed). The procedure:
Solvent: 100 parts by weight of acetone
50 μl of the active compound preparation are transferred into microtitre plates and made up to a final volume of 200 μl with 150 μl of IPL41 insect medium (33%+15% sugar). Subsequently, the plates are sealed with parafilm, which a mixed population of green peach aphids (Myzus persicae) within a second microtitre plate is able to puncture and imbibe the solution through it.
After 5 days, the efficacy in % is determined. 100% means that all the aphids have been killed; 0% means that no aphids have been killed.
Myzus persicae—Oral Test (MYZUPE O)
(§1) After the desired period of time (dat), the efficacy in % is determined. 100% means that all the aphids have been killed; 0% means that no aphids have been killed.

In another data set the test system is Tetranychus urticae. Put plainly: Tetranychus urticae - spray test, OP-resistant (TETRUR). The note with it: for Emax at 500 g/ha: Tetranychus urticae, 144 h, TETRUR, 6 dat, read-out: % efficacy; for efficacy (spider mites killed): 500 g/ha, bean leaf discs, after 6 days. The format is in vivo. The procedure: Tetranychus urticae—Spray Test, OP-Resistant
(§2) Solvents: 78.0 parts by weight of acetone • • 1.5 parts by weight of dimethylformamide
(§3) Emulsifier: alkylaryl polyglycol ether
After 6 days, the efficacy in % is determined. 100% means that all the spider mites have been killed; 0% means that no spider mites have been killed.
Tetranychus urticae—Spray Test; OP Resistant (TETRUR)
After the desired period of time (dat), the efficacy in % is determined. 100% means that all the spider mites have been killed; 0% means that none of the spider mites have been killed.

The subject of data set [3] is Myzus persicae. Put plainly: Myzus persicae - spray test (MYZUPE). Type of data set: in vivo. The note with it: for Emax at 100 g/ha / pest or weed control at 500 g/ha: Myzus persicae; for Emax at 100 g/ha: MYZUPE, 100 g of ai/ha, read-out: % efficacy; for pest or weed control at 500 g/ha: foliar, read-out: efficacy (aphids killed); for pest or weed control at 500 g/ha / efficacy (aphids killed): Chinese cabbage leaf discs, after 5-6 days, 500 g/ha. The procedure: Myzus persicae—Spray Test
Solvents: 78 parts by weight of acetone • • 1.5 parts by weight of dimethylformamide
as §3
After 5-6 days, the efficacy in % is determined. 100% means that all the aphids have been killed; 0% means that no aphids have been killed.
Myzus persicae—Spray Test (MYZUPE)
as §2, §1

[4] abbreviates: neutral range, HPLC C18, 43° C.

Read-outs that look alike come from different tables or passages of the source.

In the case of `CN(C(=O)c1cnc(Cl)n1C)c1cccnc1` [2-Chloro-N, 1-dimethyl-N-(pyridin-3-yl)-1H-imidazole-5-carboxamide], the chromatographic logP in data set [1] (setting [4]) was determined as 0.88.
In the case of `O=C(Nc1cccnc1)c1c[nH]cn1` [Ex. No. 13 WO2011/009804, reference compound], in the data set with Myzus persicae [2], the Emax at 0.8 ppm amounted to 0% and the Emax at 4 ppm turned out to be 0%. Also, the Emax at 500 g/ha in the data set with Tetranychus urticae was determined as 0%. Besides, in the data set on Myzus persicae [3] (144 h, 6 dat), the Emax at 100 g/ha stood at 0%.
`Cc1nc(C(=O)Nc2cccnc2)c[nH]1` [Ex. No. 14 WO2011/009804, reference compound]: in the data set with Myzus persicae [2], the Emax at 0.8 ppm came out at 0% and the Emax at 4 ppm worked out at 0%. The Emax at 500 g/ha in the data set on Tetranychus urticae came out at 0%. In addition, the Emax at 100 g/ha in the data set with Myzus persicae [3] (5/6 dat) came to 0%.
Regarding `CN(C(=O)c1cnc(-n2cccc2)n1C)c1cccnc1` [I-1-001], the chromatographic logP in data set [1] (setting [4]) was determined as 1.27. Further, in the data set with Myzus persicae [2], the pest or weed control at 20 ppm amounted to 100%, the Emax at 0.8 ppm is 100% and the Emax at 4 ppm worked out at 100%. The Emax at 100 g/ha in the data set on Myzus persicae [3] (144 h, 6 dat) worked out at 90%. Besides, the pest or weed control at 500 g/ha in the data set on Myzus persicae [3] came out at 90%.
With `CN(C(=O)c1cnc(-n2cccn2)n1C)c1cccnc1` [I-1-002], in data set [1] (setting [4]), the “Logp [n]” value is listed as 1.01. The “efficacy (aphids killed)” value is given as 100% with Myzus persicae [2] and 90% in the data set on Myzus persicae [3].
Taken in the same sequence, the figures for `CN(C(=O)c1cnc(-n2ccc(C#N)n2)n1C)c1cccnc1` [I-1-003] were 1.31, 100% and 90%.
Consider `CN(C(=O)c1cnc(-n2ccc(Cl)n2)n1C)c1cccnc1` [I-1-004], for which the chromatographic logP in data set [1] (setting [4]) turned out to be 1.48. In the data set on Myzus persicae [2], the pest or weed control at 20 ppm was determined as 100%, the Emax at 0.8 ppm amounted to 100% and the Emax at 4 ppm was 100%. The Emax at 100 g/ha with Myzus persicae [3] (144 h, 6 dat) is 90%. In addition, the pest or weed control at 500 g/ha in the data set on Myzus persicae [3] is 100%.
In the case of `CN(C(=O)c1cnc(-n2cc(Cl)cn2)n1C)c1cccnc1` [I-1-005], the “Logp [n]” value in data set [1] (setting [4]) was found to be 1.49. Also, the “efficacy (aphids killed)” value with Myzus persicae [2] turned out to be 100%; in the data set with Myzus persicae [3] it was 90%.
For the molecule `CN(C(=O)c1cnc(-n2cc(C(F)(F)F)cn2)n1C)c1cccnc1` [I-1-006], in data set [1] (setting [4]), the chromatographic logP came out at 1.82. Also, in the data set with Myzus persicae [2], the pest or weed control at 20 ppm amounted to 100% and the Emax at 0.8 ppm stood at 100%. Further, the Emax at 100 g/ha in the data set on Myzus persicae [3] (144 h, 6 dat) is 100%. The pest or weed control at 500 g/ha in the data set with Myzus persicae [3] was 100%.
Turning to `CN(C(=O)c1cnc(-n2ccc(C(F)(F)F)n2)n1C)c1cccnc1` [I-1-007, N,1-dimethyl-N-(pyridin-3-yl)-2-[3-(trifluoromethyl)-1H-pyrazol-1-yl]-1H-imidazole-5-carboxamide], the chromatographic logP in data set [1] (setting [4]) was found to be 1.87. Moreover, the pest or weed control at 20 ppm with Myzus persicae [2] was found to be 100%. For the same molecule, in the data set on Myzus persicae [3], the pest or weed control at 500 g/ha amounted to 100%.
Turning to `CN(C(=O)c1cnc(-n2cc(C#N)cn2)n1C)c1cccnc1` [I-1-008], the “Logp [n]” value in data set [1] (setting [4]) was 1.14. Further, the “efficacy (aphids killed)” value with Myzus persicae [2] and in the data set on Myzus persicae [3] was 100% throughout.
As for `CN(C(=O)c1cnc(N2CCOCC2)n1C)c1cccnc1` [I-1-009, N,1-Dimethyl-2-(morpholin-4-yl)-N-(pyridin-3-yl)-1H-imidazole-5-carboxamide], the chromatographic logP in data set [1] (setting [4]) turned out to be 0.85. In addition, in the data set with Myzus persicae [2], the pest or weed control at 20 ppm was 100% and the Emax at 0.8 ppm was determined as 70%. Also, in the data set with Tetranychus urticae, the “efficacy (spider mites killed)” value amounted to 90% and the Emax at 500 g/ha was found to be 90%. Also, in the data set with Myzus persicae [3] (144 h, 6 dat), the Emax at 100 g/ha worked out at 70%. For the same molecule, the pest or weed control at 500 g/ha with Myzus persicae [3] amounted to 100%.
As for `CN(C(=O)c1cnc(-n2cnc(C(F)(F)F)c2)n1C)c1cccnc1` [I-1-010], the chromatographic logP in data set [1] (setting [4]) was 1.38. In the data set on Myzus persicae [2], the pest or weed control at 20 ppm came to 100%, the Emax at 0.8 ppm stood at 100% and the Emax at 4 ppm was 100%. Moreover, the Emax at 100 g/ha in the data set on Myzus persicae [3] (144 h, 6 dat) is 70%. For the same molecule, the pest or weed control at 500 g/ha in the data set on Myzus persicae [3] amounted to 100%.
`COc1ncn(-c2ncc(C(=O)N(C)c3cccnc3)n2C)n1` [I-1-011]: in the data set on Myzus persicae [2], the Emax at 0.8 ppm came to 90% and the Emax at 4 ppm was 90%. In the data set with Myzus persicae [3] (120 h, 5 dat), the Emax at 100 g/ha worked out at 70%.
Consider `CSc1ncn(-c2ncc(C(=O)N(C)c3cccnc3)n2C)n1` [I-1-011], for which the “Logp [n]” value in data set [1] (setting [4]) amounted to 1.27. For the same molecule, the “efficacy (aphids killed)” value in the data set with Myzus persicae [2] and in the data set on Myzus persicae [3] was 100% throughout.
`CSc1ccn(-c2ncc(C(=O)N(C)c3cccnc3)n2C)n1` [I-1-012]: in data set [1] (setting [4]), the “Logp [n]” value is listed as 1.57. Moreover, the results for the “efficacy (aphids killed)” value in the data set on Myzus persicae [2] and in the data set with Myzus persicae [3] were 100% and 90%, respectively.
Taken in the same sequence, the figures for `CN(C(=O)c1cnc(N2CCCCC2)n1C)c1cccnc1` [I-1-013] were 1.53, 100% and 100%.
Taken in the same sequence, the figures for `CCN(C(=O)c1cnc(-n2cc(C(F)(F)F)cn2)n1C)c1cccnc1` [I-1-014] were 2.09, 100% and 90%.
On to `CCN(C(=O)c1cnc(-n2cc(C#N)cn2)n1C)c1cccnc1` [I-1-015], for which the chromatographic logP in data set [1] (setting [4]) turned out to be 1.42. In addition, in the data set on Myzus persicae [2], the pest or weed control at 20 ppm was found to be 100%, the Emax at 0.8 ppm amounted to 100% and the Emax at 4 ppm is 100%. In the data set with Tetranychus urticae, the “efficacy (spider mites killed)” value came out at 90% and the Emax at 500 g/ha came to 90%. In the data set on Myzus persicae [3], the pest or weed control at 500 g/ha stood at 90%.
With `CC1CCN(c2ncc(C(=O)N(C)c3cccnc3)n2C)CC1` [I-1-016], the “Logp [n]” value in data set [1] (setting [4]) turned out to be 1.87. In addition, the “efficacy (aphids killed)” value is given as 100% in the data set with Myzus persicae [2] and 90% in the data set with Myzus persicae [3].
Take `CN(C(=O)c1cnc(N2CCC(C#N)CC2)n1C)c1cccnc1` [I-1-017]: in data set [1] (setting [4]), the chromatographic logP is 1.16. Also, in the data set with Myzus persicae [2], the pest or weed control at 20 ppm is 100%, the Emax at 0.8 ppm was 100% and the Emax at 4 ppm worked out at 100%. For the same molecule, in the data set with Myzus persicae [3] (120 h, 5 dat), the Emax at 100 g/ha was 90%. Besides, the pest or weed control at 500 g/ha with Myzus persicae [3] stood at 100%.
For `CN(C(=O)c1cnc(N2CCC(c3ccccc3)CC2)n1C)c1cccnc1` [I-1-018], the “Logp [n]” value in data set [1] (setting [4]) amounted to 2.38. Also, the “efficacy (aphids killed)” value in the data set on Myzus persicae [2] and in the data set on Myzus persicae [3] was 100% each time.
As to `CN(C(=O)c1cnc(N2CCCC2)n1C)c1cccnc1` [I-1-019], the “Logp [n]” value in data set [1] is 1.19. The “efficacy (aphids killed)” value in the data set with Myzus persicae [2] and with Myzus persicae [3] was 100% each time.
`CC1CC(C)CN(c2ncc(C(=O)N(C)c3cccnc3)n2C)C1` (stereo not drawn) [I-1-020]: the “Logp [n]” value in data set [1] (setting [4]) came to 2.21. The “efficacy (aphids killed)” value in the data set with Myzus persicae [2] and in the data set on Myzus persicae [3] was 100% each time.
Regarding `Cc1cnn(-c2ncc(C(=O)N(C)c3cccnc3)n2C)c1` [I-1-021], in data set [1] (setting [4]), the “Logp [n]” value came to 1.29. Besides, the “efficacy (aphids killed)” value in the data set with Myzus persicae [2] and in the data set on Myzus persicae [3] was 100% in each case.
`Cc1cn(-c2ncc(C(=O)N(C)c3cccnc3)n2C)nc1C` [I-1-023]: the “Logp [n]” value in data set [1] (setting [4]) is 1.42.
On the same count and under the same terms, to `Cc1ccn(-c2ncc(C(=O)N(C)c3cccnc3)n2C)n1` [I-1-024] belongs 1.18.
Regarding `CN(C(=O)c1cnc(-n2ccnc2)n1C)c1cccnc1` [I-1-025], in data set [1], the “Logp [n]” value is given as 0.56.
On to `CN(C(=O)c1cnc(-n2cnc(Cl)n2)n1C)c1cccnc1` [I-1-026], for which, in data set [1] (setting [4]), the “Logp [n]” value worked out at 1.17.
The same measure, in the same setting: to `CN(C(=O)c1cnc(-n2cc3c(n2)CCC3)n1C)c1cccnc1` [I-1-027] belongs 1.5; to `CN(C(=O)c1cnc(-n2ncc(C#N)c2N)n1C)c1cccnc1` [I-1-028], 0.78.
As for `CCN(C(=O)c1cnc(-n2ccc(C#N)n2)n1C)c1cccnc1` [I-1-029], the “Logp [n]” value in data set [1] (setting [4]) is given as 1.53.
Same read-out and setting: to `CC(C)c1cnn(-c2ncc(C(=O)N(C)c3cccnc3)n2C)c1` [I-1-030] belongs 1.84.
